Measurements reported in article PMC4703832, “Haem-activated promiscuous targeting of artemisinin in Plasmodium falciparum” (Nature Communications, 2015).

What was measured:
[1] = target: T1, LDH (L-lactate dehydrogenase) (Plasmodium falciparum, UniProt Q76NM3); assay: LDH inhibition assay, absorbance at […] nm; format: biochemical; settings: 0-80 uM artesunate, haemin 200 uM and L-ascorbic acid 200 uM, 4 h preincubation at 37 °C; covalent, haem-activated
T1 construct: gene PF3D7_1324900; gene amplified from 3D7 genomic DNA, pET28a, E. coli BL21(DE3)-star, Ni-NTA purified

PyrK (pyruvate kinase) = target: T2, PyrK (pyruvate kinase) (Plasmodium falciparum, UniProt C6KTA4); assay: pyruvate kinase inhibition assay, absorbance at […] nm; format: biochemical; settings: 0-80 uM artesunate, haemin 200 uM and L-ascorbic acid 200 uM, 4 h preincubation at 37 °C; covalent, haem-activated
T2 construct: gene PF3D7_0626800
T2 sequence (C6KTA4 1-511): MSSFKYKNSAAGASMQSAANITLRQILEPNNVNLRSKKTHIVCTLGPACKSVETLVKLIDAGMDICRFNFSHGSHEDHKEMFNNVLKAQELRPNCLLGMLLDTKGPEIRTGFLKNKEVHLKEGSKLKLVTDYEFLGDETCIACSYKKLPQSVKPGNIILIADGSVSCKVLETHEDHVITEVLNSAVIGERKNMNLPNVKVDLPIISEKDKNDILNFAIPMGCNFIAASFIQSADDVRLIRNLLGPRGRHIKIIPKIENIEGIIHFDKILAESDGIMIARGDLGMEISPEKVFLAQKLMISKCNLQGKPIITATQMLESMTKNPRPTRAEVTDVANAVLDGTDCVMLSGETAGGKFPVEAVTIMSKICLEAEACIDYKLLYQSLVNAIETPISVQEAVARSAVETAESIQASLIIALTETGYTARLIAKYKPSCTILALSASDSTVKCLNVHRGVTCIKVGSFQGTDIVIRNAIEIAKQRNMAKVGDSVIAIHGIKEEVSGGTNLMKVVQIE

T1 sequence (Q76NM3 1-316): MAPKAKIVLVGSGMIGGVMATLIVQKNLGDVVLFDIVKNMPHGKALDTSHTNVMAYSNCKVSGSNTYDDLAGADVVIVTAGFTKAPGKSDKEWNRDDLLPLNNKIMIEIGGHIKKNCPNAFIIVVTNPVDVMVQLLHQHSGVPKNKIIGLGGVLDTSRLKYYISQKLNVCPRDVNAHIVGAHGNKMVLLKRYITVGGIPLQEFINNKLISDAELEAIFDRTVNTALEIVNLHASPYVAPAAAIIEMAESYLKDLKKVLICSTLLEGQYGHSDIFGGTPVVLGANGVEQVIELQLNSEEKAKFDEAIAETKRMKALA

`C[C@H]1[C@H](OC(=O)CCC(=O)O)O[C@@H]2O[C@@]3(C)CC[C@H]4[C@H](C)CC[C@@H]1[C@@]24OO3` [Arts, artesunate] was tested, and the dose-dependent inhibition [1] was “Functional assays showed that artesunate inhibits their enzymatic activities in a dose-dependent manner” and the dose-dependent inhibition (PyrK (pyruvate kinase)) was “Functional assays showed that artesunate inhibits their enzymatic activities in a dose-dependent manner”.
